Reference: US20080312255A1 (ASTRAZENECA AB, priority 2007, published 2008)
Where a name gives a salt, the structure may show the parent alone.

Target: S. aureus GyrB ATPase (Staphylococcus aureus, UniProt P0A0K8)
Assay: S. aureus GyrB ATPase inhibition (ammonium molybdate/malachite green phosphate detection)
Format: biochemical
Details: compound concentration of 1 μM
Protocol: S. aureus GyrB ATPase Inhibition Activity: Compounds may be tested for inhibition of S. aureus GyrB ATPase activity using an ammonium molybdate/malachite green-based phosphate detection assay (Lanzetta, P. A., L. J. Alvarez, P. S. Reinach, and O. A. Candia, 1979, 100: 95-97). Assays can be performed in multiwell plates in 30 μl reactions containing: 50 mM Hepes buffer pH 7.5, 75 mM ammonium acetate, 8.0 mM magnesium chloride, 0.5 mM ethylenediaminetetraacetic acid, 5% glycerol, 1.0 mM 1,4-Dithio-DL-threitol, 200 nM bovine serum albumin, 1.0 μg/ml sheared salmon sperm DNA, 250 pM E. coli GyrA, 250 pM S. aureus GyrB, 250 μM ATP, and compound in dimethylsulfoxide. Reactions can be quenched with […] of ammonium molybdate/malachite green detection reagent containing 1.2 mM malachite green hydrochloride, 8.5 mM ammonium molybdate tetrahydrate, and 1 M hydrochloric acid. Plates can be read in an absorbance plate reader at 650 nm and percent inhibition values can be calculated using dimethylsulfoxide (2%)-containing reactions as 0% inhibition and EDTA-containing ([…]) reactions as 100% inhibition controls. An IC50 measurement of compound potency for each compound can be determined from reactions performed in the presence of 10 different compound concentrations.
Compounds of the invention were tested in an assay substantially similar to the assay described above for measuring the inhibition of S. aureus GyrB ATPase. Percent inhibition of S. aureus GyrB ATPase at a compound concentration of 1 μM (unless otherwise noted) is disclosed in the following table: […]

Chain of S. aureus GyrB ATPase (P0AES4 whole entry): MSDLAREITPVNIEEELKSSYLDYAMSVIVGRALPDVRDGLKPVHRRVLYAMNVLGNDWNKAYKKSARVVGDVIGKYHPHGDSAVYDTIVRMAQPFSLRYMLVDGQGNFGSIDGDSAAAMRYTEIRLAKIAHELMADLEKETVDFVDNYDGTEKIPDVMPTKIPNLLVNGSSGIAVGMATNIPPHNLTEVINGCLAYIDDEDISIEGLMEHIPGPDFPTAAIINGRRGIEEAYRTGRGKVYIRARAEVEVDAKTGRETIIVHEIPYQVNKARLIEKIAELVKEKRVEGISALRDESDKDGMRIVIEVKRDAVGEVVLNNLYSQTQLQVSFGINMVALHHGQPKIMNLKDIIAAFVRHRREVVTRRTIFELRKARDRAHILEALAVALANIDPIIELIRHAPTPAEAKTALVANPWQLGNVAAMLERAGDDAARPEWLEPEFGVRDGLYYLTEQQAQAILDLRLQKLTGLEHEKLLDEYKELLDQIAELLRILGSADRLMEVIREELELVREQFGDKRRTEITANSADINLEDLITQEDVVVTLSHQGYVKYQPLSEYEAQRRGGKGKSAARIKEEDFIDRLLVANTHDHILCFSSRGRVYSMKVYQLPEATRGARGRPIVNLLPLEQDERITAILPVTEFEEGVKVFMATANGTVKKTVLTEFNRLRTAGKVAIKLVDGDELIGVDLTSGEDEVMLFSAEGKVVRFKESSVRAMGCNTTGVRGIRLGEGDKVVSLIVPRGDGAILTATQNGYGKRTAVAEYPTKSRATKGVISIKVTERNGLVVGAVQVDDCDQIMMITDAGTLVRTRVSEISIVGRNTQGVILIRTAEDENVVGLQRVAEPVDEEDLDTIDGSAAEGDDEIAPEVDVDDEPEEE
Chain of S. aureus GyrB ATPase (P0A0K8 whole entry): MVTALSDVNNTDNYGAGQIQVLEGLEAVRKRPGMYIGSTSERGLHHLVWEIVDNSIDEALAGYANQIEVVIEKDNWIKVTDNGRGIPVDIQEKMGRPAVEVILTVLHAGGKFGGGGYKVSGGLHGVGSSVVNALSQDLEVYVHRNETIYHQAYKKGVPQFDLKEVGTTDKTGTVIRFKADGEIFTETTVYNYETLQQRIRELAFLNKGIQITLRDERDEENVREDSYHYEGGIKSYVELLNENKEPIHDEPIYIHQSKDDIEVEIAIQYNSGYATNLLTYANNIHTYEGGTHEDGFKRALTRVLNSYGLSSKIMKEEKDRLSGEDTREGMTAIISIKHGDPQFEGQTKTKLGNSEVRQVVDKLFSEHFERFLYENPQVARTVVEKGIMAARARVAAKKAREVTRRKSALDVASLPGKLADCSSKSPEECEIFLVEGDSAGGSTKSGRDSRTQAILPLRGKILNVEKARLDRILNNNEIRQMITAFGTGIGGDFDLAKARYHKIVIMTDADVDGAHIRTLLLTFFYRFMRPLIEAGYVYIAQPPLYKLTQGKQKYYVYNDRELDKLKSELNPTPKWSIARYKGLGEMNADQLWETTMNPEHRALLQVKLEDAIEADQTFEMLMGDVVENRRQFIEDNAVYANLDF

Compound	inhibition at 1 µM
CO[C@H]1CN(c2nc(-c3nccn3C)c(C(=O)O)s2)CC[C@H]1NC(=O)c1[nH]c(C)c(Cl)c1Cl [Example 21, 2-((3S,4R)-4-{[(3,4-Dichloro-5-methyl-1H-pyrrol-2-yl)carbonyl]amino}-3-methoxypiperidin-1-yl)-4-(1-methyl-1H-imidazol-2-yl)-1,3-thiazole-5-carboxylic acid]	99.1%
CO[C@H]1CN(c2nc(-c3n(C)cc[n+]3C)c(C(=O)O)s2)CC[C@H]1NC(=O)c1[nH]c(C)c(Cl)c1Cl [Example 22, 2-[5-Carboxy-2-((3S,4R)-4-{[(3,4-dichloro-5-methyl-1H-pyrrol-2-yl)carbonyl]amino}-3-methoxypiperidin-1-yl)-1,3-thiazol-4-yl]-1,3-dimethyl-1H-imidazol-3-ium trifluoroacetate]	101%
CO[C@H]1CN(c2nc(-c3ccn[nH]3)c(C(=O)O)s2)CC[C@H]1NC(=O)c1[nH]c(C)c(Cl)c1Cl [Example 23, 2-((3S,4R)-4-{[(3,4-Dichloro-5-methyl-1H-pyrrol-2-yl)carbonyl]amino}-3-methoxypiperidin-1-yl)-4-(1H-pyrazol-5-yl)-1,3-thiazole-5-carboxylic acid]	100%
Cc1[nH]c(C(=O)N[C@@H]2CCN(c3nc(-c4ccn[nH]4)c(C(=O)O)s3)C[C@@H]2F)c(Cl)c1Cl [Example 24, 2-((3S,4R)-4-{[(3,4-Dichloro-5-methyl-1H-pyrrol-2-yl)carbonyl]amino}-3-fluoropiperidin-1-yl)-4-(1H-pyrazol-5-yl)-1,3-thiazole-5-carboxylic acid]	65.9%
COCCn1ccnc1-c1nc(N2CC[C@@H](NC(=O)c3[nH]c(C)c(Cl)c3Cl)[C@@H](OC)C2)sc1C(=O)O [Example 25, 2-((3S,4R)-4-{[(3,4-Dichloro-5-methyl-1H-pyrrol-2-yl)carbonyl]amino}-3-methoxypiperidin-1-yl)-4-[1-(2-methoxyethyl)-1H-imidazol-2-yl]-1,3-thiazole-5-carboxylic acid]	98.3%
COCCn1ccnc1-c1nc(N2CC[C@@H](NC(=O)c3[nH]c(C)c(Cl)c3Cl)[C@@H](F)C2)sc1C(=O)O [Example 26, 2-((3S,4R)-4-{[(3,4-Dichloro-5-methyl-1H-pyrrol-2-yl)carbonyl]amino}-3-fluoropiperidin-1-yl)-4-[1-(2-methoxyethyl)-1H-imidazol-2-yl]-1,3-thiazole-5-carboxylic acid]	97.4%
CO[C@H]1CN(c2nc(-c3ncnn3C)c(C(=O)O)s2)CC[C@H]1NC(=O)c1[nH]c(C)c(Cl)c1Cl [Example 27, 2-((3S,4R)-4-{[(3,4-Dichloro-5-methyl-1H-pyrrol-2-yl)carbonyl]amino}-3-methoxypiperidin-1-yl)-4-(1-methyl-1H-1,2,4-triazol-5-yl)-1,3-thiazole-5-carboxylic acid]	99.9%
Cc1[nH]c(C(=O)N[C@@H]2CCN(c3nc(-c4ncnn4C)c(C(=O)O)s3)C[C@@H]2F)c(Cl)c1Cl [Example 28, 2-((3S,4R)-4-{[(3,4-Dichloro-5-methyl-1H-pyrrol-2-yl)carbonyl]amino}-3-fluoropiperidin-1-yl)-4-(1-methyl-1H-1,2,4-triazol-5-yl)-1,3-thiazole-5-carboxylic acid]	87.1%
CO[C@H]1CN(c2nc(-c3ncnn3C)c(C(=O)O)s2)CC[C@H]1NC(=O)c1[nH]c(C)c(C#N)c1Cl [Example 29, 2-((3S,4R)-4-{[(3-Chloro-4-cyano-5-methyl-1H-pyrrol-2-yl)carbonyl]amino}-3-methoxypiperidin-1-yl)-4-(1-methyl-1H-1,2,4-triazol-5-yl)-1,3-thiazole-5-carboxylic acid]	101%
COCCn1ccnc1-c1nc(N2CC[C@@H](NC(=O)c3[nH]c(C)c(C#N)c3Cl)[C@@H](OC)C2)sc1C(=O)O [Example 30, 2-((3S,4R)-4-{[(3-Chloro-4-cyano-5-methyl-1H-pyrrol-2-yl)carbonyl]amino}-3-methoxypiperidin-1-yl)-4-[1-(2-methoxyethyl)-1H-imidazol-2-yl]-1,3-thiazole-5-carboxylic acid]	102%
CO[C@H]1CN(c2nc(-c3ncnn3C)c(C(=O)O)s2)CC[C@H]1NC(=O)c1cc(C#N)c(C)[nH]1 [Example 31, 2-((3S,4R)-4-{[(4-Cyano-5-methyl-1H-pyrrol-2-yl)carbonyl]amino}-3-methoxypiperidin-1-yl)-4-(1-methyl-1H-1,2,4-triazol-5-yl)-1,3-thiazole-5-carboxylic acid]	99.3%
CO[C@H]1CN(c2nc(-c3nc(C)c(C)n3C)c(C(=O)O)s2)CC[C@H]1NC(=O)c1[nH]c(C)c(Cl)c1Cl [Example 32, 2-((3S,4R)-4-{[(3,4-Dichloro-5-methyl-1H-pyrrol-2-yl)carbonyl]amino}-3-methoxypiperidin-1-yl)-4-(1,4,5-trimethyl-1H-imidazol-2-yl)-1,3-thiazole-5-carboxylic acid]	99.9%
CO[C@H]1CN(c2nc(-c3csc(N)n3)c(C(=O)O)s2)CC[C@H]1NC(=O)c1[nH]c(C)c(Cl)c1Cl [Example 33, 2′-Amino-2-((3S,4R)-4-{[(3,4-dichloro-5-methyl-1H-pyrrol-2-yl)carbonyl]amino}-3-methoxypiperidin-1-yl)-4,4′-bi-1,3-thiazole-5-carboxylic acid]	101%
CNc1nc(-c2nc(N3CC[C@@H](NC(=O)c4[nH]c(C)c(Cl)c4Cl)[C@@H](OC)C3)sc2C(=O)O)cs1 [Example 34, 2-((3S,4R)-4-{[(3,4-Dichloro-5-methyl-1H-pyrrol-2-yl)carbonyl]amino}-3-methoxypiperidin-1-yl)-2′-(methylamino)-4,4′-bi-1,3-thiazole-5-carboxylic acid]	99.6%
CO[C@H]1CN(c2nc(-c3csc(N(C)C)n3)c(C(=O)O)s2)CC[C@H]1NC(=O)c1[nH]c(C)c(Cl)c1Cl [Example 35, 2-((3S,4R)-4-{[(3,4-Dichloro-5-methyl-1H-pyrrol-2-yl)carbonyl]amino}-3-methoxypiperidin-1-yl)-2′-(dimethylamino)-4,4′-bi-1,3-thiazole-5-carboxylic acid]	96.6%
Cc1[nH]c(C(=O)N[C@@H]2CCN(c3nc(-c4csc(N)n4)c(C(=O)O)s3)C[C@@H]2F)c(Cl)c1Cl [Example 36, 2′-Amino-2-((3S,4R)-4-{[(3,4-dichloro-5-methyl-1H-pyrrol-2-yl)carbonyl]amino}-3-fluoropiperidin-1-yl)-4,4′-bi-1,3-thiazole-5-carboxylic acid]	99.6%
CNc1nc(-c2nc(N3CC[C@@H](NC(=O)c4[nH]c(C)c(Cl)c4Cl)[C@@H](F)C3)sc2C(=O)O)cs1 [Example 37, 2-((3S,4R)-4-{[(3,4-Dichloro-5-methyl-1H-pyrrol-2-yl)carbonyl]amino}-3-fluoropiperidin-1-yl)-2′-(methylamino)-4,4′-bi-1,3-thiazole-5-carboxylic acid]	101%
Cc1[nH]c(C(=O)N[C@@H]2CCN(c3nc(-c4csc(N(C)C)n4)c(C(=O)O)s3)C[C@@H]2F)c(Cl)c1Cl [Example 38, 2-((3S,4R)-4-{[(3,4-Dichloro-5-methyl-1H-pyrrol-2-yl)carbonyl]amino}-3-fluoropiperidin-1-yl)-2′-(dimethylamino)-4,4′-bi-1,3-thiazole-5-carboxylic acid]	97.3%
Cc1[nH]c(C(=O)N[C@@H]2CCN(c3nc(-c4nccn4C)c(C(=O)O)s3)C[C@@H]2F)c(Cl)c1Cl [Example 39, 2-((3S,4R)-4-{[(3,4-Dichloro-5-methyl-1H-pyrrol-2-yl)carbonyl]amino}-3-fluoropiperidin-1-yl)-4-(1-methyl-1H-imidazol-2-yl)-1,3-thiazole-5-carboxylic acid]	101%
CO[C@H]1CN(c2nc(-c3cn(C)cn3)c(C(=O)O)s2)CC[C@H]1NC(=O)c1[nH]c(C)c(Cl)c1Cl [Example 40, 2-((3S,4R)-4-{[(3,4-Dichloro-5-methyl-1H-pyrrol-2-yl)carbonyl]amino}-3-methoxypiperidin-1-yl)-4-(1-methyl-1H-imidazol-4-yl)-1,3-thiazole-5-carboxylic acid]	101%
Cc1[nH]c(C(=O)N[C@@H]2CCN(c3nc(-c4cn(C)cn4)c(C(=O)O)s3)C[C@@H]2F)c(Cl)c1Cl [Example 41, 2-((3S,4R)-4-{[(3,4-Dichloro-5-methyl-1H-pyrrol-2-yl)carbonyl]amino}-3-fluoropiperidin-1-yl)-4-(1-methyl-1H-imidazol-4-yl)-1,3-thiazole-5-carboxylic acid]	104%
COc1ccnc(-c2nc(N3CC[C@@H](NC(=O)c4[nH]c(C)c(Cl)c4Cl)[C@@H](OC)C3)sc2C(=O)O)n1 [Example 42, 2-((3S,4R)-4-{[(3,4-Dichloro-5-methyl-1H-pyrrol-2-yl)carbonyl]amino}-3-methoxypiperidin-1-yl)-4-(4-methoxypyrimidin-2-yl)-1,3-thiazole-5-carboxylic acid]	99.9%
CCOC(=O)c1sc(N2CC[C@@H](NC(=O)c3[nH]c(C)c(Cl)c3Cl)[C@@H](OC)C2)nc1-c1ncccn1 [Example 43, Ethyl 2-((3S,4R)-4-{[(3,4-dichloro-5-methyl-1H-pyrrol-2-yl)carbonyl]amino}-3-methoxypiperidin-1-yl)-4-pyrimidin-2-yl-1,3-thiazole-5-carboxylate]	102%
